Laboratory results taken from article PMC5673977, “Transport Deficiency Is the Molecular Basis of Candida albicans Resistance to Antifungal Oligopeptides” (Frontiers in Microbiology, 2017).
Converted amounts (≈) assume the structure as drawn. Read-outs that look alike come from different tables or passages of the source. Where a SMILES comes first, the peptide text is derived from it. [ ]: non-standard residue; d: D form. The star is where a group is joined. Fumaryl(OMe) = COC(=O)/C=C/C(=O)*; Dap = NC[C@H](N)C(=O)O

How the values were obtained:
Assay type in all cases: cell-based, Candida albicans
[1] = system: C. albicans SC 5314 cells; assay: Morphological changes, Calcofluor White staining for chitin; details: SC 5314 cells in RPMI-1640, 6 h, 30°C, F11 100 μg mL^-1
Protocol: Candida albicans cells from the overnight cultures in YPD were harvested, washed with sterile saline and suspended in the RPMI-1640 medium, to the final cell density of 10^5 cfu mL^-1. The compounds tested were added at appropriate concentrations and cultures were incubated for 6 h at 30°C, with shaking. At time intervals, samples of 0.1 mL were collected and cells were stained for chitin. The culture samples were combined with 0.1 mL aliquots of the Calcofluor White solution [0.3 mg mL^-1 in 25 mM phosphate-buffered saline (PBS), pH 7.0] and incubated for 5 min at 25°C. The cells were then harvested, washed four times with PBS, re-suspended in 0.1 mL of the fresh PBS and transferred to a microscopic slide. The stained cells were examined with the Olympus BX 60 F5 fluorescence microscope and photographs were taken using the Studio Lite software (Pixera Corporation, United States).
Since the anticandidal activity of P10 was moderate but independent on medium content and that of F11 was higher but strongly influenced by medium composition, it seemed obvious that the molecular bases of growth inhibitory activity of P10 and F11 were different and that a higher activity of F11 resulted from the presence of FMDP in its structure. To confirm whether the anticandidal activity of F11 was a consequence of GlcN6P synthase inhibition by FMDP, a morphology of SC 5314 cells treated with F11 was compared to that of the untreated cells. The cells were stained with Calcofluor White, the fluorescent brightener that binds specifically to chitin in the fungal cell wall. […] Since it is well known that the primary septum is built of chitin, this finding confirms that the action of F11 results in inhibition of chitin biosynthesis.

C. albicans opt4Δ = details: turbidity 531 nm, at least 80% decrease
Protocol: (§1) Strains were grown at 30°C in YPD medium (1% yeast extract, 2% peptone, and 2% glucose) and stored on YPD plates containing 2% agar. Susceptibility testing was performed in YPD and other three media: (a) RPMI-1640 w/o sodium bicarbonate, with L-glutamine + 2% glucose + 3.45% MOPS, pH adjusted to 7.0; (b) YNB-AS—Yeast Nitrogen Base w/o amino acids (contains ammonium sulfate 5 g L^-1) + 2% glucose; (c) YNB-SG—Yeast Nitrogen Base w/o amino acids and ammonium sulfate + 2% glucose + 0.2 g L^-1 sodium glutamate. In their solid version, used for the mutant generation and isolation, YNB-AS and YNB-SG contained 2% agar.
(§2) The in vitro growth inhibitory activity of antifungals was quantified by determination of minimal inhibitory concentration (MIC) values by the serial twofold dilution method, using the 96-well microtiter plates in three media: buffered RPMI-1640, YNB-AS, and YNB-SG. Conditions of the RPMI-1640-based assay were the same as outlined in the CLSI recommendations ([Clinical Laboratory Standards Institute, 2008]), except for the end-point readout that was done by spectrophotometric determination of cell density at 531 nm. Turbidity in individual wells was measured with a microplate reader (Victor^3; Perkin Elmer). MIC was defined as the lowest drug concentration that gave at least an 80% decrease in turbidity, relative to that of the drug-free growth control.
(§3) The 96-well microtiter plates were also used for determination of in vitro growth inhibitory activity in YPD and YNB-based media. Individual wells were inoculated with 5 × 10^3 cfu mL^-1 of C. albicans cells from the overnight culture in YPD medium. The inoculated plates were incubated 37°C for 24 h and then turbidity was measured with a microplate reader at 531 nm, as described above for the RPMI-1640-based assay.

C. albicans opt5Δ = details: turbidity 531 nm, at least 80% decrease
Protocol: as §1, §2, §3

C. albicans ptr2Δ ptr22Δ = details: turbidity 531 nm, at least 80% decrease
Protocol: as §1, §2, §3

C. albicans SC5314 = details: for Increase of MICs in presence of Ala-Ala-Ala-Ala: YNB-SG + Ala-Ala-Ala-Ala 1 g L^-1; for Effect of supplementation with Ala-Ala or Ala-Ala-Ala on activity: YNB-based media + Ala-Ala or Ala-Ala-Ala, 1 g L^-1, 'similar effect' = complete elimination of activity as with Bacto Peptone; for MIC in YNB-AS, times higher than in YNB-SG: wild type SC5314
Protocol: as §1, §2, §3

C. albicans opt1–opt5Δ [2] = details: turbidity 531 nm, at least 80% decrease
Protocol: as §1, §2, §3

[3] = system: C. albicans opt1–opt5Δ ptr2Δ ptr22Δ; details: turbidity 531 nm, at least 80% decrease
Protocol: as §1, §2, §3

C. albicans opt1Δ = details: turbidity 531 nm, at least 80% decrease
Protocol: as §1, §2, §3

C. albicans opt2Δ opt3Δ = details: turbidity 531 nm, at least 80% decrease
Protocol: as §1, §2, §3

C. albicans opt1–opt5Δ [4] = assay: Initial peptide uptake rate; details: 50 mM potassium phosphate buffer (pH 5.0 or 6.5) + 1% glucose, 30°C, 100 μM peptide, TNBS A420, slope 0- to 10-min
How it was run: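 Exponentially grown yeast in 50 mM potassium phosphate (pH 5.0 or 6.5) with 1% glucose at 30°C received oligopeptide at a final 100 μM. Residual peptide in filtrates was measured every 5 min by trinitrobenzenesulfonate assay (A420). Initial rates come from 0–10 min slopes, per mg dry cells.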

[5] = RPMI-1640 medium, MOPS pH 7.0, CLSI conditions
[6] = SC 5314, RPMI-1640 medium, MOPS pH 7.0, CLSI conditions, turbidity 531 nm, at least 80% decrease
[7] = SC 5314, YNB + L-Gln (0.3 g L^-1) pH 5.0
[8] = SC 5314, YNB + L-Gln (0.3 g L^-1) pH 7.0
[9] = SC 5314, YNB + amino acid mixture (composition as in RPMI-1640)
[10] = SC 5314, YNB-AS medium, 5 × 10^3 cfu mL^-1, 37°C, 24 h, turbidity 531 nm, at least 80% decrease
[11] = SC 5314, growth medium YNB-SG (Table 6)
[12] = SC 5314, YNB-SG medium, 5 × 10^3 cfu mL^-1, 37°C, 24 h, turbidity 531 nm, at least 80% decrease

Row | SMILES | Morphological changes (primary septum / chitin) [1] | MIC (C. albicans opt4Δ; [5]) | MIC (C. albicans opt4Δ; YNB-AS medium, 37°C, 24 h) | MIC (C. albicans opt5Δ; [5]) | MIC (C. albicans opt5Δ; YNB-AS medium, 37°C, 24 h) | MIC (C. albicans ptr2Δ ptr22Δ; [5]) | MIC (C. albicans ptr2Δ ptr22Δ; YNB-AS medium, 37°C, 24 h) | MIC (C. albicans SC5314; [6]) | MIC (C. albicans SC5314; [7]) | MIC (C. albicans SC5314; [8]) | MIC (C. albicans SC5314; [9]) | MIC (C. albicans SC5314; [10]) | MIC (C. albicans SC5314; [11]) | Increase of MICs in presence of Ala-Ala-Ala-Ala (C. albicans SC5314) | Effect of supplementation with Ala-Ala or Ala-Ala-Ala on activity (C. albicans SC5314) | MIC in YNB-AS, times higher than in YNB-SG (C. albicans SC5314) | MIC (C. albicans opt1–opt5Δ [2]; [5]) | MIC (C. albicans opt1–opt5Δ [2]; YNB-AS medium, 37°C, 24 h) | MIC [3, 5] | MIC ([3]; YNB-AS medium, 37°C, 24 h) | further results
1 | COC(=O)/C=C/C(=O)NC[C@H](N)C(=O)N[C@@H](CCCCN)C(=O)N[C@@H](CCCCN)C(=O)N[C@H](C(=O)N[C@H](C(=O)N[C@@H](Cc1ccccc1)C(=O)N[C@@H](Cc1c[nH]c2ccccc12)C(=O)N[C@H](C(=O)N[C@@H](CCCCN)C(=O)N[C@@H](Cc1ccccc1)C(=O)N[C@@H](CCCCN)C(=O)O)C(C)C)C(C)C)C(C)C [Peptide F11, FMDP-Lys-Lys-Val-Val-Phe-Trp-Val-Lys-Phe-Lys] (H-[Dap](Fumaryl(OMe))KKVVFWVKFK-OH; N-terminus assumed) | defective in formation of a primary septum | >128 µg/mL | 32 µg/mL (≈ 21.2 µM) | >128 µg/mL | 16 µg/mL (≈ 10.6 µM) | >128 µg/mL | 16 µg/mL (≈ 10.6 µM) | >128 µg/mL | 16 µg/mL | >128 µg/mL | >128 µg/mL | 16 µg/mL (≈ 10.6 µM) | 1.0 µg/mL (≈ 0.664 µM) | 16- to 64 fold | no effect | 8–16 times | >128 µg/mL | >128 µg/mL | >128 µg/mL | >128 µg/mL | Effect of N-acetyl-D-glucosamine supplementation on growth inhibitory activity (C. albicans SC5314; YNB-SG medium + N-acetyl-D-glucosamine, 10 mM): complete elimination of growth inhibitory activity; MIC (C. albicans opt1Δ; [5]): >128 µg/mL; MIC (C. albicans opt1Δ; YNB-AS medium, 37°C, 24 h): 32 µg/mL (≈ 21.2 µM); MIC (C. albicans opt2Δ opt3Δ; [5]): >128 µg/mL; MIC (C. albicans opt2Δ opt3Δ; YNB-AS medium, 37°C, 24 h): 128 µg/mL (≈ 84.9 µM)
2 | COC(=O)/C=C/C(=O)NC[C@H](NC(=O)[C@H](CCSC)NC(=O)[C@@H](NC(=O)[C@@H]1CCCN1C(=O)[C@H](CC(C)C)NC(=O)[C@@H](N)CCCCN)C(C)C)C(=O)O [Peptide F6, Lys-Leu-Pro-Val-Met-FMDP] (H-KLPVM[Dap](Fumaryl(OMe))-OH; N-terminus and C-terminus assumed) | analogous to those observed for F11-treated cells | >128 µg/mL | 8 µg/mL (≈ 10.2 µM) | >128 µg/mL | 8 µg/mL (≈ 10.2 µM) | >128 µg/mL | 4 µg/mL (≈ 5.1 µM) | >128 µg/mL | 4.0 µg/mL | 128 µg/mL | >128 µg/mL | 4 µg/mL (≈ 5.1 µM) | 0.5 µg/mL (≈ 0.637 µM) | 16- to 64 fold | no effect | 8–16 times | >128 µg/mL | >128 µg/mL | >128 µg/mL | >128 µg/mL | Uptake rate ± SD (C. albicans opt1–opt5Δ [4]): 0.22 ± 0.04 nmol min^-1 (mg dry weight)^-1; MIC (C. albicans opt4Δ; YNB-SG medium, 37°C, 24 h): 8 µg/mL (≈ 10.2 µM); MIC (C. albicans opt5Δ; YNB-SG medium, 37°C, 24 h): 4 µg/mL (≈ 5.1 µM); MIC (C. albicans ptr2Δ ptr22Δ; YNB-SG medium, 37°C, 24 h): 0.5 µg/mL (≈ 0.637 µM); MIC (C. albicans SC5314; SC5314, YNB-SG medium (Table 8)): 4 µg/mL (≈ 5.1 µM); MIC (C. albicans SC5314; [12]): 0.5 µg/mL (≈ 0.637 µM); MIC (C. albicans opt1–opt5Δ [2]; YNB-SG medium, 37°C, 24 h): 64 µg/mL (≈ 81.5 µM); MIC ([3]; YNB-SG medium, 37°C, 24 h): 64 µg/mL (≈ 81.5 µM); MIC (C. albicans opt1Δ; [5]): >128 µg/mL; MIC (C. albicans opt1Δ; YNB-AS medium, 37°C, 24 h): 8 µg/mL (≈ 10.2 µM); MIC (C. albicans opt1Δ; YNB-SG medium, 37°C, 24 h): 4 µg/mL (≈ 5.1 µM); MIC (C. albicans opt2Δ opt3Δ; [5]): >128 µg/mL; MIC (C. albicans opt2Δ opt3Δ; YNB-AS medium, 37°C, 24 h): 32 µg/mL (≈ 40.8 µM); MIC (C. albicans opt2Δ opt3Δ; YNB-SG medium, 37°C, 24 h): 32 µg/mL (≈ 40.8 µM)
3 | COC(=O)/C=C/C(=O)NC[C@H](N)C(=O)N[C@@H](CCCNC(=N)N)C(=O)N[C@@H](CCCCN)C(=O)N[C@@H](CCCCN)C(=O)N[C@@H](Cc1c[nH]c2ccccc12)C(=O)N[C@@H](Cc1ccccc1)C(=O)N[C@@H](Cc1c[nH]c2ccccc12)C(=O)O [Peptide F7, FMDP-Arg-Lys-Lys-Trp-Phe-Trp] (H-[Dap](Fumaryl(OMe))RKKWFW-OH; N-terminus and C-terminus assumed) | analogous to those observed for F11-treated cells | >128 µg/mL | 32 µg/mL (≈ 27.9 µM) | >128 µg/mL | 32 µg/mL (≈ 27.9 µM) | >128 µg/mL | 16 µg/mL (≈ 13.9 µM) | >128 µg/mL | 8.0 µg/mL | 64 µg/mL | >128 µg/mL | 16 µg/mL (≈ 13.9 µM) | 0.5 µg/mL (≈ 0.435 µM) | 16- to 64 fold | no effect | 8–16 times | >128 µg/mL | >128 µg/mL | >128 µg/mL | >128 µg/mL | Uptake rate ± SD (C. albicans opt1–opt5Δ [4]): 0.32 ± 0.07 nmol min^-1 (mg dry weight)^-1; MIC (C. albicans opt4Δ; YNB-SG medium, 37°C, 24 h): 16 µg/mL (≈ 13.9 µM); MIC (C. albicans opt5Δ; YNB-SG medium, 37°C, 24 h): 2 µg/mL (≈ 1.74 µM); MIC (C. albicans ptr2Δ ptr22Δ; YNB-SG medium, 37°C, 24 h): 0.5 µg/mL (≈ 0.435 µM); MIC (C. albicans SC5314; [12]): 0.5 µg/mL (≈ 0.435 µM); MIC (C. albicans opt1–opt5Δ [2]; YNB-SG medium, 37°C, 24 h): 64 µg/mL (≈ 55.7 µM); MIC ([3]; YNB-SG medium, 37°C, 24 h): 64 µg/mL (≈ 55.7 µM); MIC (C. albicans opt1Δ; [5]): >128 µg/mL; MIC (C. albicans opt1Δ; YNB-AS medium, 37°C, 24 h): 32 µg/mL (≈ 27.9 µM); MIC (C. albicans opt1Δ; YNB-SG medium, 37°C, 24 h): 8 µg/mL (≈ 6.97 µM); MIC (C. albicans opt2Δ opt3Δ; [5]): >128 µg/mL; MIC (C. albicans opt2Δ opt3Δ; YNB-SG medium, 37°C, 24 h): 32 µg/mL (≈ 27.9 µM)
